In ChEMBL document CHEMBL6134863, “Novel Mitochondria-Targeted Asymmetric Heptamethine Cyanine Dye for Cancer Targeted NIR Imaging and Potent Necrosis and Senescence Induction with Prolonged Retention” (J Med Chem, 2025):
One block for each compound: values may come before it. Activity calls are given as the source filed them. No cut-off for these calls is given here.

How the values were obtained:
[1] = Solubility of compound in DMSO-H2O; assay type: physicochemical
[2] = Drug uptake in human NCI-H226 cells assessed as increase in green fluorescence intensity at 5 uM incubated for 30 mins by F-actin staining staining based microscopic analysis; assay type: ADME, cell-based; settings: nci-h226, 0.5 h
NIH3T3 = test: Cytotoxicity against mouse 3T3 cells assessed as decrease in cell viability up to 5 uM incubated for 24 hrs by CCK-8 assay; assay type: toxicity, cell-based; settings: nih3t3, 24 h
[3] = Antioxidant activity of compound in presence of SO4; assay type: functional
[4] = Antioxidant activity of compound in presence of HSO3-; assay type: functional
NCI-H226 = test: Cytotoxicity against human NCI-H226 assessed as decrease in cell viability up to 10 uM incubated for 24 hrs by CCK-8 assay; assay type: functional, cell-based
[5] = Antioxidant activity of compound in presence of TBHP; assay type: functional
[6] = Antioxidant activity of compound in presence of ONOO-; assay type: functional
[7] = Partition coefficient, logP of compound; assay type: physicochemical; settings: octanol/water
[8] = Antioxidant activity of compound in presence of ClO-; assay type: functional
[9] = Ratio of drug level in tumor to muscle of BALB/c mouse implanted with mouse 4T1 cells at 0.5 mg/kg, iv measured at 12 to 24 hrs; assay type: ADME, organism-based; settings: in vivo, time 12-24 hrs
[10] = Cytotoxicity against human Primary lung fibroblast assessed as decrease in cell viability up to 5 uM incubated for 24 hrs by CCK-8 assay; assay type: toxicity, cell-based
[11] = Photostability of compound in DMSO-H2O incubated for 1 hr irradiated with deuterium lamp by absorbance based analysis; assay type: physicochemical; settings: read-out: Stability
[12] = Antioxidant activity of compound in presence of Cl-; assay type: functional
[13] = Antioxidant activity of compound in presence of NH4+; assay type: functional
[14] = Drug uptake in human NCI-H226 cells assessed as increase in red fluorescence intensity at 5 uM incubated for 30 mins by CY7 staining based microscopic analysis; assay type: ADME, cell-based; settings: nci-h226, 0.5 h
[15] = Antioxidant activity of compound in presence of NO2; assay type: functional
[16] = Antioxidant activity of compound in presence of RSS; assay type: functional
[17] = Drug localization in mitochondria of human NCI-H226 cell by MitoTracker Red based NIR confocal microscopic analysis; assay type: ADME
[18] = Antioxidant activity of compound in presence of CO3; assay type: functional
[19] = Stability of compound in DMSO-H2O incubated for 150 mins by absorbance based analysis; assay type: physicochemical; settings: 2.5 h
[20] = Drug uptake in mouse 4T1 cells assessed as increase in green fluorescence intensity at 5 uM incubated for 30 mins by F-actin staining staining based microscopic analysis; assay type: ADME, cell-based; settings: 4t1, 0.5 h
NCI-H250 = test: Antitumor activity against human […] cells xenografted in BALB/c mouse assessed as tumor growth inhibition 0.5 mg/kg, iv measured for 5 days; assay type: functional, organism-based; settings: time 5.0 day
[21] = Drug uptake in human NCI-H226 cells assessed as increase in fluorescence intensity incubated for 24 hrs by fluorescence based microscopic analysis; assay type: ADME, cell-based; settings: nci-h226, 24 h
[22] = Drug uptake in mouse 4T1 cells assessed as increase in red fluorescence intensity at 5 uM incubated for 30 mins by CY7 staining based microscopic analysis; assay type: ADME, cell-based; settings: 4t1, 0.5 h
[23] = Distribution coefficient, logD of compound; assay type: physicochemical; settings: octanol/water
[24] = Antioxidant activity of compound in presence of […]; assay type: functional
[25] = Cytotoxicity against human Primary lung fibroblast assessed as decrease in cell viability up to 10 uM incubated for 24 hrs by CCK-8 assay; assay type: toxicity, cell-based
[26] = Antioxidant activity of compound in presence of HCO3-; assay type: functional
[27] = Antioxidant activity of compound in presence of Br-; assay type: functional
[28] = Drug accumulation in tumor to muscle of BALB/c mouse implanted with mouse 4T1 cells at 0.5 mg/kg, iv measured at 4 to 168 hrs; assay type: ADME, organism-based; settings: in vivo, time 4-168 hrs
[29] = Antioxidant activity of compound in presence of H2O2-; assay type: functional
[30] = Antioxidant activity of compound in presence of RNS; assay type: functional
[31] = Antioxidant activity of compound in presence of HCHO; assay type: functional
[32] = Antioxidant activity of compound in presence of Ca2+; assay type: functional
[33] = Antioxidant activity of compound in presence of ROS; assay type: functional
[34] = Antioxidant activity of compound in presence of Glutathione; assay type: functional
[35] = Antioxidant activity of compound in presence of OH; assay type: functional
[36] = Antioxidant activity of compound in presence of L-Cysteine; assay type: functional
[37] = Antioxidant activity of compound in presence of Fe3+; assay type: functional
[38] = Drug accumulation in BALB/c mouse tumor xenografted with human NCI-H520 cells assessed as increase in fluorescence intensity at 0.5 mg/kg, iv measured at 96 hrs by imaging based analysis; assay type: ADME, organism-based, Neoplasm; settings: in vivo

Compound: CC1(C)C(/C=C/C=C/C=C/C=C2\N(CCCCS(=O)(=O)O)c3ccc4ccccc4c3C2(C)C)=[N+](CCCCS(=O)(=O)[O-])c2ccc3ccccc3c21 [INDOCYANINE GREEN]
Activity (NCI-H226): Active | remaining at 1 h [11]: 95.2%

Compound: CC1(C)C(/C=C/C2=C(Cl)C(=C/C=C3/N(CCCOc4ccc(C(=O)O)cc4)c4ccc5ccccc5c4C3(C)C)/CCC2)=[N+](CCCOc2ccc(C(=O)O)cc2)c2ccc3ccccc3c21.[Br-]
logP [7]: 7.24 | logD [23]: 4.19 | Drug uptake [28]: Active

Compound: CC1(C)C(/C=C/C=C/C=C/C=C2/N(CCCOc3ccc(C(=O)O)cc3)c3ccc4ccccc4c3C2(C)C)=[N+](CCCOc2ccc(C(=O)O)cc2)c2ccc3ccccc3c21.[Br-]
solubility [1]: 170 µg/mL | logP [7]: 7.26 | logD [23]: 3.79

Compound: CC1(C)C(/C=C/C2=C(Cl)C(=C/C=C3/N(CCOc4ccccc4C(=O)O)c4ccc5ccccc5c4C3(C)C)/CCC2)=[N+](CCOc2ccccc2C(=O)O)c2ccc3ccccc3c21
logP [7]: 7.27 | logD [23]: 3.73

Compound: COC(=O)CNC(=O)c1ccc(OCCCN2/C(=C/C=C3\CCCC(/C=C/C4=[N+](CCCOc5ccc(C(=O)NCC(=O)OC)cc5)c5ccc6ccccc6c5C4(C)C)=C3Cl)C(C)(C)c3c2ccc2ccccc32)cc1.[Br-]
logP [7]: 7.45 | logD [23]: 5.51 | Drug uptake [28]: Active

Compound: CC1(C)C(/C=C/C=C/C=C/C=C2/N(Cc3ccc(C(=O)O)cc3)c3ccc4ccccc4c3C2(C)C)=[N+](Cc2ccc(C(=O)O)cc2)c2ccc3ccccc3c21.[Br-]
solubility [1]: 170 µg/mL | logP [7]: 7.06 | logD [23]: 3.59

Compound: Cc1ccc2c(c1)C(C)(C)C(/C=C/C1=C(Cl)C(=C/C=C3/N(CCCOc4ccc(C(=O)O)cc4)c4ccc(C)cc4C3(C)C)/CCC1)=[N+]2CCCOc1ccc(C(=O)O)cc1.[Br-]
logP [7]: 6.41 | logD [23]: 4.02 | Drug uptake [28]: Active

Compound: Cc1ccc2c(c1)C(C)(C)C(/C=C/C1=C(Cl)C(=C/C=C3/N(Cc4ccc(C(=O)O)cc4)c4ccc(C)cc4C3(C)C)/CCC1)=[N+]2Cc1ccc(C(=O)O)cc1.[Br-]
logP [7]: 6.14 | logD [23]: 4.74 | Drug uptake [28]: Active

Compound: CC(C)(C)OC(=O)Nc1ccc2c(c1)C(C)(C)C(/C=C/C1=C(Cl)C(=C/C=C3/N(Cc4ccc(C(=O)O)cc4)c4ccc(NC(=O)OC(C)(C)C)cc4C3(C)C)/CCC1)=[N+]2Cc1ccc(C(=O)O)cc1
logP [7]: 6.92 | logD [23]: 3.78

Compound: COC(=O)CCC(=O)CNC(=O)c1ccc(CN2/C(=C/C=C3\CCCC(/C=C/C4=[N+](Cc5ccc(C(=O)NCC(=O)CCC(=O)OC)cc5)c5ccc6ccccc6c5C4(C)C)=C3Cl)C(C)(C)c3c2ccc2ccccc32)cc1.[Br-]
logP [7]: 7.21 | logD [23]: 5.28 | Drug uptake [28]: Active

Compound: CC1(C)C(/C=C/C2=C(Cl)C(=C/C=C3/N(Cc4ccc(C(=O)O)cc4)c4ccc(N)cc4C3(C)C)/CCC2)=[N+](Cc2ccc(C(=O)O)cc2)c2ccc(N)cc21
logP [7]: 5.6 | logD [23]: 3.22

Compound: COC(=O)CNC(=O)c1ccc(CN2/C(=C/C=C3\CCCC(/C=C/C4=[N+](Cc5ccc(C(=O)NCC(=O)OC)cc5)c5ccc6ccccc6c5C4(C)C)=C3Cl)C(C)(C)c3c2ccc2ccccc32)cc1.[Br-]
logP [7]: 7.23 | logD [23]: 5.6 | Drug uptake [28]: Active

Continued, in another order:

solubility [1]: 170 µg/mL | Drug uptake [2]: Not_active | logP [7]: 6.21 | Ratio [9]: > 5 | remaining at 1 h [11]: 89.4% | Drug uptake [14]: Not_active | Drug uptake [17]: Active | Stability [19]: Stable | Drug uptake [20]: Not_active | Drug uptake [21]: Active | Drug uptake [22]: Not_active | logD [23]: 4.63 | Drug uptake [28]: Active | Drug uptake [38]: Active
Compound: CCCN1/C(=C/C=C2\CCCC(/C=C/C3=[N+](CCCOc4ccc(C(=O)O)cc4)c4ccccc4C3(C)C)=C2Cl)C(C)(C)c2ccccc21.[Br-]
Activity (NIH3T3): > 80% | Activity [3]: Active | Activity [4]: Active | Activity (NCI-H226): Active | Activity [5]: Active | Activity [6]: Active | Activity [8]: Active | Activity [10]: Non-toxic | Activity [12]: Active | Activity [13]: Active | Activity [15]: Active | Activity [16]: Active | Activity [18]: Active | TGI (NCI-H250): Active | Activity [24]: Active | Activity [25]: Non-toxic | Activity [26]: Active | Activity [27]: Active | Activity [29]: Active | Activity [30]: Active | Activity [31]: Active | Activity [32]: Active | Activity [33]: Active | Activity [34]: Active | Activity [35]: Active | Activity [36]: Active | Activity [37]: Active

Drug uptake [2]: Not_active | logP [7]: 5.89 | Drug uptake [14]: Not_active | Drug uptake [20]: Not_active | Drug uptake [22]: Not_active | logD [23]: 4.24 | Drug uptake [28]: Active
Compound: CCN1/C(=C/C=C2\CCCC(/C=C/C3=[N+](Cc4ccc(C(=O)O)cc4)c4ccccc4C3(C)C)=C2Cl)C(C)(C)c2ccccc21.[Br-]

Drug uptake [2]: Active | logP [7]: 6.17 | Ratio [9]: > 5 | Drug uptake [14]: Active | Drug uptake [20]: Active | Drug uptake [22]: Active | logD [23]: 4.48 | Drug uptake [28]: Active
Compound: COC(=O)CCC(=O)CNC(=O)c1ccc(CN2/C(=C/C=C3\CCCC(/C=C/C4=[N+](Cc5ccc(C(=O)NCC(=O)CCC(=O)OC)cc5)c5ccccc5C4(C)C)=C3Cl)C(C)(C)c3ccccc32)cc1.[Br-]

Drug uptake [2]: Active | logP [7]: 6.18 | Ratio [9]: > 5 | Drug uptake [14]: Active | Drug uptake [20]: Active | Drug uptake [22]: Active | logD [23]: 4.3 | Drug uptake [28]: Active
Compound: COC(=O)CNC(=O)c1ccc(OCCC[N+]2=C(/C=C/C3=C(Cl)C(=C/C=C4/N(Cc5ccc(C(=O)O)cc5)c5ccccc5C4(C)C)/CCC3)C(C)(C)c3ccccc32)cc1.[Br-]

solubility [1]: 170 µg/mL | Drug uptake [2]: Active | logP [7]: 5.9 | Ratio [9]: > 5 | Drug uptake [14]: Active | Drug uptake [20]: Active | Drug uptake [22]: Active | logD [23]: 4.23 | Drug uptake [28]: Active
Compound: CC1(C)C(/C=C/C2=C(Cl)C(=C/C=C3/N(CCCCCC(=O)O)c4ccccc4C3(C)C)/CCC2)=[N+](CCCOc2ccc(C(=O)O)cc2)c2ccccc21.[Br-]

logP [7]: 6.18 | logD [23]: 3.39
Compound: COC(=O)CNC(=O)CCN1/C(=C/C=C2\CCCC(/C=C/C3=[N+](CCC(=O)NCC(=O)OC)c4ccc5ccccc5c4C3(C)C)=C2Cl)C(C)(C)c2c1ccc1ccccc21

logP [7]: 5.36 | logD [23]: 3.92
Compound: COC(=O)C(C)NC(=O)CCN1/C(=C/C=C2\CCCC(/C=C/C3=[N+](CCC(=O)NC(C)C(=O)OC)c4ccccc4C3(C)C)=C2Cl)C(C)(C)c2ccccc21 (centres undefined)
